Experimental data from patent publication US6852863B2, “Metabolites of (3-{[4-tert-butyl-benzyl)-(pyridine-3-sulfonyl)-amino]-methyl}-phenoxy)-acetic acid” (Pfizer Inc., priority 2002, dated 2005).

What was measured:
[1] = Metabolism of 14C-parent in human liver microsomes; type: in vitro ADME; settings: 20 μM 14C-parent, NADPH, 30 minutes, 37° C.; HPLC radiochromatogram peak
Method: Human (HL-mix 12), rat, monkey and dog liver microsomes were prepared by differential centrifugation using standard procedures. Prior to use, liver microsomes were thawed on ice and reconstituted using 100 mM potassium phosphate pH 7.4. [^14C]-(3-{[4-tert-butyl-benzyl)-(pyridine-3-sulfonyl)-amino]-methyl}-phenoxy)-acetic acid was dissolved 100 mM potassium phosphate pH 7.4 at a final substrate concentration of 20 μM. Samples were pre-incubated for 3 min with microsomes (CYP 450; 0.5 μM) at 37° C. in a shaking water bath. Incubations were initiated with the addition of 100 μl cofactor (1.1 mM NADPH, 10 mM MgCl2) per 1 ml of incubation mixture. Incubations were stopped after 30 minutes by the addition of an equal volume of cold acetonitrile.
Metabolite quantification was performed by measuring the areas of individually separated HPLC peaks using the β-RAM (IN/US, Win-flow). […]
(§1) Identification of the metabolites was performed using a Finnigan TSQ 7000 triple quadrupole mass spectrometer equipped with an API-2 electrospray interface. […] The β-RAM response was recorded as a real time analog signal by the MS data collection system. The collected data from the radioactivity and MS detectors were separated by the dwell volume of flow from the MS to the radioactivity detector (corresponding to a dwell time of about 0.2 min.). […]

Human hepatocytes = test: Metabolism of parent in human hepatocytes; type: in vitro ADME; settings: 20 μM parent, 2 million cells per ml, 4 hours, 37° C.; mobile phase pH 5.0
Method: Human hepatocytes were generated from a mix of 3 livers. Rat and monkey hepatocytes were generated using Sprague Dawley rats (12 livers), Cynomolgus monkey (1 liver) and Beagle dogs (2 livers). Cryopreserved hepatocytes were suspended in William's E media with 10% FBS to a viable count of 2 million cells per ml and gassed with 95/5 O2/CO2 initially and every hour of incubations. After the addition of 20 μM (3-{[4-tert-butyl-benzyl)-(pyridine-3-sulfonyl)-amino]-methyl}-phenoxy)-acetic acid to a 25 ml Erlenmeyer flask, 2.5 ml of hepatocytes suspension was added and incubated for 4 hours at 37° C. in a shaking water bath.
Metabolite quantification was performed by measuring the areas of individually separated HPLC peaks using the β-RAM (IN/US, Win-flow). The β-RAM provided integrated peak representation printouts in CPM as well as the percentage of the radiolabeled material. The β-RAM was operated using a solid scintillation cell. […]
as §1

Percent of Radioactivity, Human liver microsomes [1]: 26.5%
Percent of Radioactivity, Human hepatocytes (Human hepatocytes): 41.2%
Compound: CC(C)(CO)c1ccc(CN(Cc2cccc(OCC(=O)O)c2)S(=O)(=O)c2cccnc2)cc1 [Metabolite M4, (3-{[[4-(2-hydroxy-1,1-dimethyl-ethyl)-benzyl]-(pyridine-3-sulfonyl)-amino]-methyl}-phenoxy)-acetic acid]
